Laboratory results reported in patent publication US8624034B2, “Fluoro-pyridinone derivatives useful as antibacterial agents” (Pfizer Inc., priority 2011, dated 2014).
Converted amounts (≈) assume the structure as drawn.

Key:
[1] = target: T1, Pseudomonas aeruginosa LpxC enzyme (Pseudomonas aeruginosa, UniProt P47205); assay: IC50 assay, LpxC enzyme from P. aeruginosa (PA LpxC enzyme IC50); assay type: biochemical; details: Table 2; LpxC enzyme 0.1 nM, 25° C., 1 hour; read-out: PA:IC50
T1 construct: made in house; host or cells: E. coli
T1 sequence (P47205 1-303): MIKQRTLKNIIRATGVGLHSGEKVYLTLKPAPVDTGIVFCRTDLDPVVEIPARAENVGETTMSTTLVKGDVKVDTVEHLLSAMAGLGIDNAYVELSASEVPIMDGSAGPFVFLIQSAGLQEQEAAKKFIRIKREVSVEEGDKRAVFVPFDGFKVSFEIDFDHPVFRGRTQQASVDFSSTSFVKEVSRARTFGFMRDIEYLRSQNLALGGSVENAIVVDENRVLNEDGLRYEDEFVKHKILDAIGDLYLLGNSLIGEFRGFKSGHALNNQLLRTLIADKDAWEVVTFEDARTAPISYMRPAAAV
Procedure, shortened: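 IC50 values came from percent conversion, referenced to a no-enzyme control. Conversion was read by RapidFire HTMS mass spectrometry after HCl quench of the 1 h enzyme reaction.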

[2] = test system: Acinetobacter baumannii/haemolyticus, multidrug-resistant clinical isolate (AB-3167); assay: MIC determination, AB-3167; assay type: cell-based; details: Table 2, lower of duplicate values
Procedure, shortened: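 MIC read visually after overnight growth across 2-fold concentration steps in the CLSI dilution method against the multidrug-resistant clinical isolate. Duplicate determinations, lower value reported when within 2-fold, otherwise repeated; every run checked with control organisms and reference drugs.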

[3] = test system: Escherichia coli EC-1: VOGEL, mouse virulent; assay: MIC determination, EC-1; assay type: cell-based; details: Escherichia coli, read-out: EC-1 (MIC), Table 2, lower of duplicate values
Procedure, shortened: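 Duplicate runs differing by more than 2-fold were repeated, and otherwise the lower MIC was kept. The test organism was E. coli EC-1 (VOGEL, mouse virulent), incubated overnight across 2-fold compound dilutions following CLSI guidelines. The MIC was read visually as the lowest concentration inhibiting growth relative to drug-free control.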

[4] = test system: Pseudomonas aeruginosa UI-18: wild-type (PA-7); assay: MIC determination, PA-7; assay type: cell-based; details: Table 2, lower of duplicate values
Description: The in vitro antibacterial activity of compounds described in the Examples was evaluated by minimum inhibitory concentration (MIC) testing according to Clinical and Laboratory Standards Institute (CLSI). See: Clinical and Laboratory Standards Institute. Methods for Dilution Antimicrobial Susceptibility Tests for Bacteria that Grow Aerobically; Approved Standard-Eighth Edition. CLSI document M7-A8 [ISBN 1-56238-689-1]. Clinical and Laboratory Standards Institute, 940 West Valley Road, Suite 1400, Wayne, Pa. 19087-1898 USA, 2006; also Clinical and Laboratory Standards Institute. Performance Standards for Antimicrobial Susceptibility Testing; Twentieth Informational Supplement. CLSI document M100-S20 [ISBN 1-56238-716-2]. Clinical and Laboratory Standards Institute.
The MIC determination is a standard laboratory method for evaluating the antibacterial activity of a compound. The MIC represents the lowest drug concentration that inhibits visible growth of bacteria following overnight incubation. […] Typically, the drug concentration range is broken down into 2-fold increments (e.g. 0.06 μg/mL, 0.12 μg/mL. 0.25 μg/mL, 0.50 μg/mL, 1.0 μg/mL, etc.) and the various drug concentrations are all individually incubated overnight with approximately the same number of bacteria. The MIC is then determined by visually inspecting the drug effect at each concentration, and identifying the lowest drug concentration that has inhibited bacterial growth as compared to the drug free control. Typically, bacteria continue to grow at drug concentrations lower than the MIC and don't grow at concentrations at and above the MIC.
The MIC values described in Table 2 and 3 below were derived from assays wherein each test compound was evaluated in duplicate. In cases where the duplicate values varied by 0-2-fold, the lower of the two values was reported below. Generally speaking, if the duplicate values varied by more than 2-fold, the assay was considered non-valid and was repeated until the variation between duplicate runs was ≦2-fold. In line with the CLSI guidelines referred to above, both control organisms and reference compounds were utilized in each MIC assay to provide proper quality control. MIC values generated with these control organisms and reference compounds were required to fall within a defined range for the assay to be considered valid and be included herein. Those skilled in the art will recognize that MIC values can and do vary from experiment to experiment. Generally speaking, it should be recognized that MIC values often vary +/−2-fold from experiment to experiment. While a single MIC is reported for each compound and each microorganism, the reader should not conclude that each compound was only tested once. Several of the compounds were subjected to multiple tests. The data reported in Tables 2 and 3 is reflective of the compounds relative activity and different MICs may have been generated on these occasions in line with the guidelines described above.
The following bacterial strains were used in these MIC determinations:
1) Pseudomonas aeruginosa UI-18: Wild-type, labeled as PA-7 in Tables 2 and 3;

| Structure (SMILES) | IC50 [1] [nM] | MIC [2] [µg/mL] | MIC [3] [µg/mL] | MIC [4] [µg/mL] |
| --- | --- | --- | --- | --- |
| C[C@@](CCn1cc(F)c(-c2ccc(-n3ncnn3)cc2)cc1=O)(C(=O)NO)S(C)(=O)=O [Example 1, (2R)-4-{5-fluoro-2-oxo-4-[4-(2H-tetrazol-2-yl)phenyl]pyridin-1(2H)-yl}-N-hydroxy-2-methyl-2-(methylsulfonyl)butanamide] | 1.49 | > 64 | > 64 | 32 (≈ 71 µM) |
| COc1ccc(-c2cc(=O)n(CC[C@](C)(C(=O)NO)S(C)(=O)=O)cc2F)cc1 [Example 28, (2R)-4-[5-Fluoro-4-(4-methoxyphenyl)-2-oxopyridin-1(2H)-yl]-N-hydroxy-2-methyl-2-(methylsulfonyl)butanamide] | 0.564 | > 64 | 1 (≈ 2.42 µM) | 0.5 (≈ 1.21 µM) |
| [2H]C([2H])([2H])C([2H])([2H])Oc1ccc(-c2cc(=O)n(CC[C@](C)(C(=O)NO)S(C)(=O)=O)cc2F)cc1 [Example 45, (2R)-4-[4-(4-Pentadeuteroethoxyphenyl)-5-fluoro-2-oxopyridin-1(2H)-yl]-N-hydroxy-2-methyl-2-(methylsulfonyl)butanamide] | 0.547 | > 64 | 0.125 (≈ 0.29 µM) | 0.5 (≈ 1.16 µM) |
| C[C@@](CCn1cc(F)c(-c2ccc(Cl)cc2F)cc1=O)(C(=O)NO)S(C)(=O)=O [Example 16, (2R)-4-[4-(4-Chloro-2-fluorophenyl)-5-fluoro-2-oxopyridin-1(2H)-yl]-N-hydroxy-2-methyl-2-(methylsulfonyl)butanamide] | 0.336 | > 64 | 0.25 (≈ 0.575 µM) | 0.5 (≈ 1.15 µM) |
| COc1cnc(-c2ccc(-c3cc(=O)n(CC[C@](C)(C(=O)NO)S(C)(=O)=O)cc3F)cc2)nc1 [Example 21, (2R)-4-{5-Fluoro-4-[4-(5-methoxypyrimidin-2-yl)phenyl]-2-oxopyridin-1(2H)-yl}-N-hydroxy-2-methyl-2-(methylsulfonyl)butanamide] | 0.436 | > 64 | 0.125 (≈ 0.255 µM) | 1 (≈ 2.04 µM) |
| COc1cnn(-c2ccc(-c3cc(=O)n(CC[C@](C)(C(=O)NO)S(C)(=O)=O)cc3F)cc2)n1 [Example 22, (2R)-4-{5-Fluoro-4-[4-(4-methoxy-2H-1,2,3-triazol-2-yl)phenyl]-2-oxopyridin-1(2H)-yl}-N-hydroxy-2-methyl-2-(methylsulfonyl)butanamide] | 0.181 | > 64 | ≤ 0.06 | 0.5 (≈ 1.04 µM) |
| C[C@@](CCn1cc(F)c(-c2ccc(OC(F)F)cc2)cc1=O)(C(=O)NO)S(C)(=O)=O [Example 33, (2R)-4-{4-[4-(Difluoromethoxy)phenyl]-5-fluoro-2-oxopyridin-1(2H)-yl}-N-hydroxy-2-methyl-2-(methylsulfonyl)butanamide] | 0.0606 | > 64 | 0.5 (≈ 1.12 µM) | 0.5 (≈ 1.12 µM) |
| CCCc1ccc(-c2cc(=O)n(CC[C@](C)(C(=O)NO)S(C)(=O)=O)cc2F)cc1 [Example 11, (2R)-4-[5-Fluoro-2-oxo-4-(4-propylphenyl)pyridin-1(2H)-yl]-N-hydroxy-2-methyl-2-(methylsulfonyl)butanamide] | 0.482 | > 64 | 0.125 (≈ 0.294 µM) | 0.5 (≈ 1.18 µM) |
| C[C@@](CCn1cc(F)c(-c2ccc(F)cc2)cc1=O)(C(=O)NO)S(C)(=O)=O [Example 31, (2R)-4-[5-Fluoro-4-(4-fluorophenyl)-2-oxopyridin-1(2H)-yl]-N-hydroxy-2-methyl-2-(methylsulfonyl)butanamide] | 0.213 | > 64 | 1 (≈ 2.5 µM) | 0.5 (≈ 1.25 µM) |
| C[C@@](CCn1cc(F)c(-c2ccccc2)c(O)c1=O)(C(=O)NO)S(C)(=O)=O [Example 40, (2R)-4-(5-Fluoro-3-hydroxy-2-oxo-4-phenylpyridin-1(2H)-yl)-N-hydroxy-2-methyl-2-(methylsulfonyl)butanamide] | > 100 | 64 (≈ 161 µM) | 16 (≈ 40.2 µM) | 16 (≈ 40.2 µM) |
| C[C@@](CCn1cc(F)c(-c2ccc3nccnc3c2)cc1=O)(C(=O)NO)S(C)(=O)=O [Example 24, (2R)-4-(5-Fluoro-2-oxo-4-quinoxalin-6-ylpyridin-1(2H)-yl)-N-hydroxy-2-methyl-2-(methylsulfonyl)butanamide] | 1.23 | > 64 | 4 (≈ 9.21 µM) | 4 (≈ 9.21 µM) |
| C[C@@](CCn1cc(F)c(-c2ccc(-c3ncco3)cc2)cc1=O)(C(=O)NO)S(C)(=O)=O [Example 42, (2R)-4-[5-Fluoro-4-[4-(1,3-oxazol-2-yl)phenyl]-2-oxopyridin-1(2H)-yl]-N-hydroxy-2-methyl-2-(methylsulfonyl)butanamide] | 0.328 | > 64 | 0.25 (≈ 0.556 µM) | 1 (≈ 2.22 µM) |
| C[C@@](CCn1cc(F)c(-c2ccc(OCC(F)(F)F)cc2)cc1=O)(C(=O)NO)S(C)(=O)=O [Example 7, (2R)-4-{5-Fluoro-2-oxo-4-[4-(2,2,2-trifluoroethoxy)phenyl]pyridin-1(2H)-yl}-N-hydroxy-2-methyl-2-(methylsulfonyl)butanamide] | 0.576 | > 64 | 0.25 (≈ 0.52 µM) | 1 (≈ 2.08 µM) |
| C[C@@](CCn1cc(F)c(-c2ccc(OC3CC3)cc2)cc1=O)(C(=O)NO)S(C)(=O)=O [Example 46, (2R)-4-{4-[4-(Cyclopropyloxy)phenyl]-5-fluoro-2-oxopyridin-1(2H)-yl}-N-hydroxy-2-methyl-2-(methylsulfonyl)butanamide] | 0.229 | > 64 | 0.125 (≈ 0.285 µM) | 0.5 (≈ 1.14 µM) |
| COc1cccc(-c2cc(=O)n(CC[C@](C)(C(=O)NO)S(C)(=O)=O)cc2F)c1F [Example 17, (2R)-4-[5-fluoro-4-(2-fluoro-3-methoxyphenyl)-2-oxopyridin-1(2H)-yl]-N-hydroxy-2-methyl-2-(methylsulfonyl)butanamide] | 0.5 | > 64 | 0.5 (≈ 1.16 µM) | 1 (≈ 2.32 µM) |
| Cc1ccc(-c2cc(=O)n(CC[C@](C)(C(=O)NO)S(C)(=O)=O)cc2F)cc1 [Example 29, (2R)-4-[5-Fluoro-4-(4-methylphenyl)-2-oxopyridin-1(2H)-yl]-N-hydroxy-2-methyl-2-(methylsulfonyl)butanamide] | 0.514 | > 64 | 0.5 (≈ 1.26 µM) | 0.5 (≈ 1.26 µM) |
| Cc1cccc(-c2cc(=O)n(CC[C@](C)(C(=O)NO)S(C)(=O)=O)cc2F)c1F [Example 2, (2R)-4-[5-Fluoro-4-(2-fluoro-3-methylphenyl)-2-oxopyridin-1(2H)-yl]-N-hydroxy-2-methyl-2-(methylsulfonyl)butanamide] | 0.595 | > 64 | 0.25 (≈ 0.603 µM) | 0.25 (≈ 0.603 µM) |
| C[C@@](CCn1cc(F)c(-c2ccc(-c3ccon3)cc2)cc1=O)(C(=O)NO)S(C)(=O)=O [Example 41, (2R)-4-[5-Fluoro-4-(4-isoxazol-3-ylphenyl)-2-oxopyridin-1(2H)-yl]-N-hydroxy-2-methyl-2-(methylsulfonyl)butanamide] | 0.237 | 16 (≈ 35.6 µM) | 0.5 (≈ 1.11 µM) | 0.5 (≈ 1.11 µM) |
